Data on 21 molecules can be found in PubChem BioAssay AID328 (DTP/NCI, 2004).

Values joined by “and” are separate entries in the source; they are usually repeats but may differ in a detail not shown here. Equal values may be shown once. Inconclusive results and toxic doses are left out.

The experiment has as its system BDF1 mice, P388 leukemia ip, median survival T/C. The experiment is described as follows: NCI In Vivo Anticancer Drug Screen. Data for tumor model P388 Leukemia (intraperitoneal) in B6D2F1 (BDF1) mice. The following applies: endpoint: median survival time, higher = longer survival. A digest of the protocol:
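Antitumour effect was judged in vivo: survival in drug-treated mice, normalised to that of vehicle-dosed controls, gives the reported T/C.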

[1] abbreviates: dose: 50.0 mg/kg/injection, schedule: Q04DX003 (ip), vehicle: saline with Tween-80.
[2] abbreviates: dose: 100.0 mg/kg/injection, schedule: Q04DX003 (ip), vehicle: saline with Tween-80.
Where [3] appears, read: dose: 200.0 mg/kg/injection, schedule: Q04DX003 (ip), vehicle: saline with Tween-80.
Where [4] appears, read: dose: 400.0 mg/kg/injection, schedule: Q04DX003 (ip), vehicle: saline with Tween-80.
Where [5] appears, read: dose: 100.0 mg/kg/injection, schedule: Q01DX009 (ip), vehicle: saline with Tween-80.
Where [6] appears, read: dose: 300.0 mg/kg/injection, schedule: Q01DX009 (ip), vehicle: saline with Tween-80.
Setting [7] is: dose: 200.0 mg/kg/injection, schedule: Q01DX009 (ip), vehicle: saline with Tween-80.
Setting [8] is: dose: 50.0 mg/kg/injection, schedule: Q01DX009 (ip), vehicle: saline with Tween-80.
[9] abbreviates: dose: 50.0 mg/kg/injection, schedule: Q01DX009 (ip), vehicle: saline.
The mark [10] stands for this setting: dose: 100.0 mg/kg/injection, schedule: Q01DX009 (ip), vehicle: saline.
Where [11] appears, read: dose: 100.0 mg/kg/injection, schedule: Q04DX003 (ip), vehicle: saline.
Setting [12] is: dose: 200.0 mg/kg/injection, schedule: Q04DX003 (ip), vehicle: saline.
Setting [13] is: dose: 200.0 mg/kg/injection, schedule: Q01DX009 (ip), vehicle: saline.
Where [14] appears, read: dose: 400.0 mg/kg/injection, schedule: Q01DX009 (ip), vehicle: saline.
Where [15] appears, read: dose: 400.0 mg/kg/injection, schedule: Q04DX003 (ip), vehicle: saline.

On to `CCC/C(=N\Nc1ccc([N+](=O)[O-])cc1[N+](=O)[O-])c1ccccc1`, for which the T/C (dose: 25.0 mg/kg/injection, schedule: Q04DX003 (ip), vehicle: saline with Tween-80) was 90 % of control; the T/C under setting [1] was 100 % of control; the T/C under setting [2] is 109 % of control.

Take `CCCC(Cc1ccccc1)(C(=O)OCC)C(=O)OCC`: the T/C was 99 % of control under setting [2], 99 % of control under setting [3] and 91 % of control under setting [4].

On to `CC(Cc1ccccc1)NC1CC2CCC1C2` (centres undefined), for which the T/C was 104 % of control (dose: 6.25 mg/kg/injection, schedule: Q01DX009 (ip), vehicle: Klucel (hydroxypropylcellulose) (HPC)); 104 % of control (dose: 12.5 mg/kg/injection, schedule: Q01DX009 (ip), vehicle: Klucel (hydroxypropylcellulose) (HPC)); 113 % of control (dose: 25.0 mg/kg/injection, schedule: Q01DX009 (ip), vehicle: Klucel (hydroxypropylcellulose) (HPC)).

In the case of `O.[Co].[Co].[NH2-].[NH2-].[NH2-].[NH2-].[NH2-].[NH2-].[NH2-].[NH2-].[NH2-]`, the T/C (dose: 0.5 mg/kg/injection, schedule: Q01DX009 (ip), vehicle: water) was 100 % of control; the T/C (dose: 1.5 mg/kg/injection, schedule: Q04DX003 (ip), vehicle: water) was 121 % of control; the T/C (dose: 2.0 mg/kg/injection, schedule: Q01DX009 (ip), vehicle: water) was 95 % of control; the T/C (dose: 3.0 mg/kg/injection, schedule: Q04DX003 (ip), vehicle: water) is 95 % of control; the T/C (dose: 4.0 mg/kg/injection, schedule: Q01DX009 (ip), vehicle: water) was 100 % of control.

On to `CCCCOB(/C=C/Sc1ccccc1)OCCCC`, for which the T/C reads like this: under setting [5], 120 % of control; under setting [2], 115 % of control; (dose: 132.0 mg/kg/injection, schedule: Q01DX009 (ip), vehicle: saline with Tween-80) 118 % of control; under setting [3], 120 % of control; under setting [6], 122 % of control; under setting [4], 110 % of control.

Take `CCN(CC)c1ccc(Cc2ccc(N(CC)CC)cc2Br)c(Br)c1`: the T/C is 111 % of control (dose: 100.0 mg/kg/injection, schedule: Q04DX003 (ip), vehicle: Klucel (hydroxypropylcellulose) (HPC)); 111 % of control (dose: 200.0 mg/kg/injection, schedule: Q04DX003 (ip), vehicle: Klucel (hydroxypropylcellulose) (HPC)); 111 % of control (dose: 400.0 mg/kg/injection, schedule: Q04DX003 (ip), vehicle: Klucel (hydroxypropylcellulose) (HPC)).

`CC1(C)OC(C)(C)c2c1nnc(-c1ccccc1[N+](=O)[O-])[n+]2[O-]`: the T/C was 93 % of control (dose: 50.0 mg/kg/injection, schedule: Q01DX005 (ip), vehicle: saline with Tween-80); 88 % of control (dose: 100.0 mg/kg/injection, schedule: Q01DX005 (ip), vehicle: saline with Tween-80); 86 % of control (dose: 200.0 mg/kg/injection, schedule: Q01DX005 (ip), vehicle: saline with Tween-80).

For `CN(C)c1nc(NC(=O)NC(=O)c2c(F)cccc2F)nc(N(C)C)n1`, the T/C (dose: 25.0 mg/kg/injection, schedule: Q01DX009 (ip), vehicle: saline with Tween-80) is 88 % of control.

With `COC(=O)C(N)CCCCNc1ccc2c(cc1=O)C(NC(C)=O)CCc1cc(OC)c(OC)c(OC)c1-2` (centres undefined), the T/C is, setting by setting: (dose: 26.0 mg/kg/injection, schedule: Q01DX009 (ip), vehicle: saline with Tween-80) 124 % of control; (dose: 40.0 mg/kg/injection, schedule: Q01DX009 (ip), vehicle: saline with Tween-80) 118 % of control; (dose: 60.0 mg/kg/injection, schedule: Q01DX009 (ip), vehicle: saline with Tween-80) 119 % of control; (dose: 90.0 mg/kg/injection, schedule: Q01DX009 (ip), vehicle: saline with Tween-80) 117 % of control; under setting [7], 170 % of control; under setting [6], 159 % of control.

Consider `C=CN1C(=O)N(C=C)C(C)(CC(C)C)C1=O` (centres undefined), for which the T/C by setting is: under setting [1], 104 % of control; under setting [2], 109 % of control; under setting [3], 100 % of control.

As for `C=C1CC(OC(=O)c2ccc([N+](=O)[O-])cc2)C1`, the T/C is 111 % of control under setting [8], 111 % of control under setting [5] and 90 % of control under setting [7].

Take `CN(C)c1ccc(/C=C/c2ccnc3c(O)ccc(O)c23)cc1`: the T/C reads like this: under setting [8], 112 % of control; under setting [5], 124 % of control.

Consider `CC(C)n1cc2c(N)ncnc2n1`, for which the T/C reads like this: (dose: 12.5 mg/kg/injection, schedule: Q01DX009 (ip), vehicle: saline) 92 % of control; (dose: 25.0 mg/kg/injection, schedule: Q01DX009 (ip), vehicle: saline) 92 % of control; under setting [9], 100 % of control and 120 % of control; under setting [10], 100 % of control; under setting [11], 92 % of control; under setting [12], 100 % of control.

For `CC[n+]1ccc(Nc2ccc(NC(=O)c3ccc(Nc4cc[n+](CC)c5ccc([N+](=O)[O-])cc45)cc3)cc2)cc1`, the T/C by setting is: (dose: 0.44 mg/kg/injection, schedule: Q04DX003 (ip), vehicle: saline) 111 % of control; (dose: 0.66 mg/kg/injection, schedule: Q04DX003 (ip), vehicle: saline) 116 % of control; (dose: 1.0 mg/kg/injection, schedule: Q04DX003 (ip), vehicle: saline) 100 % of control; (dose: 1.5 mg/kg/injection, schedule: Q04DX003 (ip), vehicle: saline) 110 % of control; (dose: 4.0 mg/kg/injection, schedule: Q04DX003 (ip), vehicle: saline) 150 % of control; (dose: 6.0 mg/kg/injection, schedule: Q04DX003 (ip), vehicle: saline) 150 % of control. The T/C runs as follows: (dose: 22.0 mg/kg/injection, schedule: Q04DX003 (ip), vehicle: saline) 152 % of control; (dose: 33.0 mg/kg/injection, schedule: Q04DX003 (ip), vehicle: saline) 180 % of control; (dose: 50.0 mg/kg/injection, schedule: Q04DX003 (ip), vehicle: saline) 186 % of control.

Regarding `CN(C)c1ccc(/C=C/c2ccnc3ccccc23)c(Cl)c1`, the T/C is 102 % of control under setting [8], 96 % of control under setting [5] and 88 % of control under setting [7].

Consider `CC/C(=N\NS(=O)(=O)c1ccc(C)cc1)c1ccc(OC)c(OC)c1`, for which the T/C reads like this: under setting [9], 96 % of control; under setting [10], 96 % of control; under setting [13], 92 % of control.

Consider `C[n+]1c2cc(N)ccc2cc2ccc(N)cc21`, for which the T/C is 152 % of control (dose: 8.0 mg/kg/injection, schedule: Q01DX009 (ip), vehicle: saline) and 167 % of control (dose: 12.0 mg/kg/injection, schedule: Q01DX009 (ip), vehicle: saline).

Regarding `COc1ccc(/C=C(/C#N)C(N)=O)cc1Br`, the T/C (dose: 100.0 mg/kg/injection, schedule: Q01DX001 (ip), vehicle: Klucel (hydroxypropylcellulose) (HPC)) is 100 % of control; the T/C under setting [10] was 100 % of control; the T/C under setting [11] is 100 % of control; the T/C (dose: 200.0 mg/kg/injection, schedule: Q01DX001 (ip), vehicle: Klucel (hydroxypropylcellulose) (HPC)) was 113 % of control; the T/C under setting [13] is 95 % of control; the T/C under setting [12] is 120 % of control. The T/C is 109 % of control (dose: 400.0 mg/kg/injection, schedule: Q01DX001 (ip), vehicle: Klucel (hydroxypropylcellulose) (HPC)); 90 % of control under setting [14]; 120 % of control under setting [15].

In the case of `CCCCCCCCCCCCCCCC(=O)N(C/C=C/CN(CCCN(C)C)C(=O)CCCCCCCCCCCCCCC)CCCN(C)C`, the T/C reads like this: (dose: 1.56 mg/kg/injection, schedule: Q01DX009 (ip), vehicle: saline with Tween-80) 95 % of control; (dose: 3.13 mg/kg/injection, schedule: Q01DX009 (ip), vehicle: saline with Tween-80) 100 % of control; (dose: 6.25 mg/kg/injection, schedule: Q01DX009 (ip), vehicle: saline with Tween-80) 113 % of control; (dose: 12.5 mg/kg/injection, schedule: Q01DX009 (ip), vehicle: saline with Tween-80) 95 % of control and 100 % of control.

With `O=C(N[C@H](CO)[C@H](O)c1ccc([N+](=O)[O-])cc1)C(Cl)Cl`, the T/C under setting [5] was 118 % of control.

`O=C(O)C(O)C(O)C(=O)O` (centres undefined): the T/C was 100 % of control under setting [10]; 91 % of control under setting [11]; 110 % of control under setting [13]; 100 % of control under setting [12]; 100 % of control under setting [14]; 104 % of control under setting [15].
